The subject of this assay is BDF1 mice, B16 melanoma ip, median survival T/C. As to the kind of experiment: NCI In Vivo Anticancer Drug Screen. Data for tumor model B16 Melanoma (intraperitoneal) in B6D2F1 (BDF1) mice. To be noted: endpoint: median survival time, higher = longer survival. The gist of the method:
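Values are ratios of treated (T) to vehicle-control (C) measurements of survival or tumor size in tumor-bearing mice.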

The mark [1] stands for this setting: dose: 6.25 mg/kg/injection, schedule: Q01DX009 (ip), vehicle: saline with Tween-80.
[2] abbreviates: dose: 12.5 mg/kg/injection, schedule: Q01DX009 (ip), vehicle: saline with Tween-80.
The mark [3] stands for this setting: dose: 25.0 mg/kg/injection, schedule: Q01DX009 (ip), vehicle: saline with Tween-80.
Setting [4] is: dose: 50.0 mg/kg/injection, schedule: Q01DX009 (ip), vehicle: saline with Tween-80.
Where [5] appears, read: dose: 100.0 mg/kg/injection, schedule: Q01DX009 (ip), vehicle: Klucel (hydroxypropylcellulose) (HPC).
Where [6] appears, read: dose: 200.0 mg/kg/injection, schedule: Q01DX009 (ip), vehicle: Klucel (hydroxypropylcellulose) (HPC).
Where [7] appears, read: dose: 10.0 mg/kg/injection, schedule: Q01DX009 (ip), vehicle: saline.
Setting [8] is: dose: 20.0 mg/kg/injection, schedule: Q01DX009 (ip), vehicle: saline.
[9] abbreviates: dose: 12.5 mg/kg/injection, schedule: Q01DX009 (ip), vehicle: Klucel (hydroxypropylcellulose) (HPC).
Where [10] appears, read: dose: 25.0 mg/kg/injection, schedule: Q01DX009 (ip), vehicle: Klucel (hydroxypropylcellulose) (HPC).
Setting [11] is: dose: 50.0 mg/kg/injection, schedule: Q01DX009 (ip), vehicle: Klucel (hydroxypropylcellulose) (HPC).
Setting [12] is: dose: 100.0 mg/kg/injection, schedule: Q01DX009 (ip), vehicle: saline with Tween-80.
[13] abbreviates: dose: 200.0 mg/kg/injection, schedule: Q01DX009 (ip), vehicle: saline with Tween-80.

SMILES strings stand for the structures. Where “and” joins values, the source holds several entries; their conditions need not be identical. Equal entries are not always repeated. Inconclusive results and toxic doses are left out.

Regarding `CCN=NNc1ccc(C)cc1`, the T/C runs as follows: (dose: 3.13 mg/kg/injection, schedule: Q01DX009 (ip), vehicle: saline with Tween-80) 95 % of control; under setting [1], 91 % of control; (dose: 6.25 mg/kg/injection, schedule: Q04DX003 (ip), vehicle: saline with Tween-80) 94 % of control; under setting [2], 97 % of control; (dose: 12.5 mg/kg/injection, schedule: Q04DX003 (ip), vehicle: saline with Tween-80) 101 % of control; under setting [3], 91 % of control. Besides, the T/C (dose: 25.0 mg/kg/injection, schedule: Q04DX003 (ip), vehicle: saline with Tween-80) was 103 % of control.

Regarding `C[C@]12CC[C@H](O)C[C@@]1(O)CC[C@@H]1[C@@H]2CC[C@]2(C)[C@@H](c3ccc(=O)oc3)CC[C@]12O`, the T/C was 94 % of control (dose: 1.25 mg/kg/injection, schedule: Q01DX009 (ip), vehicle: Klucel (hydroxypropylcellulose) (HPC)); 92 % of control (dose: 2.5 mg/kg/injection, schedule: Q01DX009 (ip), vehicle: Klucel (hydroxypropylcellulose) (HPC)); 92 % of control (dose: 5.0 mg/kg/injection, schedule: Q01DX009 (ip), vehicle: Klucel (hydroxypropylcellulose) (HPC)); 94 % of control (dose: 10.0 mg/kg/injection, schedule: Q01DX009 (ip), vehicle: Klucel (hydroxypropylcellulose) (HPC)); 96 % of control under setting [2]; 94 % of control (dose: 20.0 mg/kg/injection, schedule: Q01DX009 (ip), vehicle: Klucel (hydroxypropylcellulose) (HPC)). In addition, the T/C reads like this: under setting [3], 94 % of control; under setting [4], 92 % of control.

Turning to `CC(O)COc1ccc(OCc2ccccc2)cc1` (stereo not drawn), the T/C by setting is: under setting [5], 106 % of control; under setting [6], 109 % of control; (dose: 400.0 mg/kg/injection, schedule: Q01DX009 (ip), vehicle: Klucel (hydroxypropylcellulose) (HPC)) 100 % of control.

For the molecule `CCN=C=NCCCN(C)C`, the T/C under setting [7] was 92 % of control; the T/C under setting [8] is 92 % of control; the T/C (dose: 40.0 mg/kg/injection, schedule: Q01DX009 (ip), vehicle: saline) is 97 % of control; the T/C (dose: 80.0 mg/kg/injection, schedule: Q01DX009 (ip), vehicle: saline) was 94 % of control.

For `N#CC1CCCC[N-]1.[NH-]CC[N-]CC[NH-].[Pt+4]` (stereo not drawn), the T/C runs as follows: (dose: 6.25 mg/kg/injection, schedule: Q01DX009 (ip), vehicle: saline) 113 % of control; (dose: 12.5 mg/kg/injection, schedule: Q01DX009 (ip), vehicle: saline) 108 % of control; (dose: 25.0 mg/kg/injection, schedule: Q01DX009 (ip), vehicle: saline) 91 % of control.

Turning to `CCC(C(=O)O)C(=O)O.[NH2-].[NH2-].[Pt+2]`, the T/C runs as follows: (dose: 8.0 mg/kg/injection, schedule: Q01DX009 (ip), vehicle: water) 115 % of control; (dose: 12.5 mg/kg/injection, schedule: Q04DX003 (ip), vehicle: saline) 108 % of control and 113 % of control; (dose: 16.0 mg/kg/injection, schedule: Q01DX009 (ip), vehicle: water) 170 % of control; (dose: 25.0 mg/kg/injection, schedule: Q04DX003 (ip), vehicle: saline) 170 % of control; (dose: 50.0 mg/kg/injection, schedule: Q04DX003 (ip), vehicle: saline) 177 % of control and 219 % of control; (dose: 100.0 mg/kg/injection, schedule: Q04DX003 (ip), vehicle: saline) 112 % of control and 247 % of control.

In the case of `COC(=O)C1C(O)C(C)C(O)C(C)/C=C\C=C(C)C(=O)Nc2c(C)c(OC(C)=O)c3c(c2O)C(=O)C(C)=C2OCOC(=C23)C(C)=CC(C)(O)C(O)C(C)C1O` (stereo not drawn), the T/C under setting [9] was 112 % of control; the T/C under setting [10] is 100 % of control; the T/C (dose: 25.0 mg/kg/injection, schedule: Q01DX009 (ip), vehicle: carboxymethylcellulose (CMC)) was 107 % of control; the T/C under setting [11] is 102 % of control; the T/C (dose: 50.0 mg/kg/injection, schedule: Q01DX009 (ip), vehicle: carboxymethylcellulose (CMC)) was 103 % of control; the T/C (dose: 100.0 mg/kg/injection, schedule: Q01DX009 (ip), vehicle: carboxymethylcellulose (CMC)) was 102 % of control. Besides, the T/C (dose: 200.0 mg/kg/injection, schedule: Q01DX009 (ip), vehicle: carboxymethylcellulose (CMC)) is 96 % of control.

Consider `CC1CN1CC(O)C(O)CN1CC1C` (stereo not drawn), for which the T/C reads like this: (dose: 0.25 mg/kg/injection, schedule: Q01DX009 (ip), vehicle: saline) 100 % of control; (dose: 0.4 mg/kg/injection, schedule: Q01DX009 (ip), vehicle: saline) 110 % of control; (dose: 0.5 mg/kg/injection, schedule: Q01DX009 (ip), vehicle: saline) 107 % of control and 102 % of control; (dose: 0.6 mg/kg/injection, schedule: Q01DX009 (ip), vehicle: saline) 118 % of control; (dose: 0.63 mg/kg/injection, schedule: Q01DX009 (ip), vehicle: saline) 150 % of control; (dose: 0.8 mg/kg/injection, schedule: Q01DX009 (ip), vehicle: saline) 110 % of control. Moreover, the T/C reads like this: (dose: 0.9 mg/kg/injection, schedule: Q01DX009 (ip), vehicle: saline) 153 % of control; (dose: 1.25 mg/kg/injection, schedule: Q01DX009 (ip), vehicle: saline) 93 % of control; (dose: 2.0 mg/kg/injection, schedule: Q01DX009 (ip), vehicle: saline) 156 % of control and 151 % of control; (dose: 2.5 mg/kg/injection, schedule: Q01DX009 (ip), vehicle: saline) 106 % of control.

For `CC1CC(C)(C)C(C[NH-])C1[NH-].[Cl][Pt+2][Cl]` (stereo not drawn), the T/C (dose: 4.0 mg/kg/injection, schedule: Q01DX009 (ip), vehicle: other) is 153 % of control; the T/C (dose: 8.0 mg/kg/injection, schedule: Q01DX009 (ip), vehicle: other) was 150 % of control; the T/C (dose: 16.0 mg/kg/injection, schedule: Q01DX009 (ip), vehicle: other) is 112 % of control.

For `CS(=O)(=O)[O-].CS(=O)(=O)[O-].NC1CCCCC1N.[Pt+4]` (stereo not drawn), the T/C (dose: 0.62 mg/kg/injection, schedule: Q01DX009 (ip), vehicle: other) is 124 % of control and the T/C (dose: 1.25 mg/kg/injection, schedule: Q01DX009 (ip), vehicle: other) was 159 % of control.

On to `CCOC(=O)C(=CN1CCOCC1)C(=O)OCC`, for which the T/C under setting [12] is 90 % of control; the T/C (dose: 100.0 mg/kg/injection, schedule: Q04DX003 (ip), vehicle: saline with Tween-80) is 100 % of control; the T/C under setting [13] is 98 % of control; the T/C (dose: 200.0 mg/kg/injection, schedule: Q04DX003 (ip), vehicle: saline with Tween-80) is 102 % of control; the T/C (dose: 400.0 mg/kg/injection, schedule: Q01DX009 (ip), vehicle: saline with Tween-80) was 98 % of control; the T/C (dose: 400.0 mg/kg/injection, schedule: Q04DX003 (ip), vehicle: saline with Tween-80) was 109 % of control.

Consider `CCO/C=C1\SC(=S)N(Cc2ccccc2)C1=O`, for which the T/C (dose: 3.12 mg/kg/injection, schedule: Q01DX009 (ip), vehicle: saline with Tween-80) was 111 % of control; the T/C under setting [1] is 123 % of control; the T/C under setting [9] was 92 % of control; the T/C under setting [2] is 123 % of control; the T/C under setting [10] is 102 % of control and 105 % of control; the T/C under setting [3] is 111 % of control.

With `O=C(O)[C@@H]1[C@H]2C[C@H]3c4[nH]c5ccccc5c4CCN3C[C@@H]2CC[C@@H]1O`, the T/C reads like this: under setting [10], 89 % of control; under setting [11], 88 % of control; under setting [5], 97 % of control; under setting [6], 92 % of control.

For the molecule `O=C(CN1C(=O)c2ccccc2C1=O)OC(c1ccccc1)c1ccccc1`, the T/C under setting [11] is 90 % of control and the T/C under setting [5] is 90 % of control.

Turning to `COc1ccc2nonc2c1`, the T/C is 107 % of control under setting [3], 95 % of control under setting [4], 91 % of control under setting [12] and 101 % of control under setting [13].

As for `CCN(CC)c1ccc(N)cc1`, the T/C by setting is: (dose: 5.0 mg/kg/injection, schedule: Q01DX009 (ip), vehicle: saline) 109 % of control; under setting [7], 95 % of control; under setting [8], 95 % of control.

For the origin of these results see PubChem BioAssay AID192 (DTP/NCI, 2004).
